Results reported in article PMC10123100, “Single-molecule visualization of stalled replication-fork rescue by the Escherichia coli Rep helicase” (Nucleic Acids Research, 2023).

Key:
[1] = biological target: T1, Rep helicase (His6-Rep WT) (Escherichia coli, UniProt P09980); experiment: SPR, nucleotide-stimulated dissociation of Rep from immobilised dT35; assay type: binding; details: 200 uM ATP, 20 nM Rep, biotinylated dT35, Mg2+, pH 7.6, 20 C
T1 construct: full-length with His6 tag kept, plasmid pZX2198, expressed in E. coli BL21(DE3)/pLysS; monomer, multimer on long ssDNA
T1 sequence (P09980 whole entry): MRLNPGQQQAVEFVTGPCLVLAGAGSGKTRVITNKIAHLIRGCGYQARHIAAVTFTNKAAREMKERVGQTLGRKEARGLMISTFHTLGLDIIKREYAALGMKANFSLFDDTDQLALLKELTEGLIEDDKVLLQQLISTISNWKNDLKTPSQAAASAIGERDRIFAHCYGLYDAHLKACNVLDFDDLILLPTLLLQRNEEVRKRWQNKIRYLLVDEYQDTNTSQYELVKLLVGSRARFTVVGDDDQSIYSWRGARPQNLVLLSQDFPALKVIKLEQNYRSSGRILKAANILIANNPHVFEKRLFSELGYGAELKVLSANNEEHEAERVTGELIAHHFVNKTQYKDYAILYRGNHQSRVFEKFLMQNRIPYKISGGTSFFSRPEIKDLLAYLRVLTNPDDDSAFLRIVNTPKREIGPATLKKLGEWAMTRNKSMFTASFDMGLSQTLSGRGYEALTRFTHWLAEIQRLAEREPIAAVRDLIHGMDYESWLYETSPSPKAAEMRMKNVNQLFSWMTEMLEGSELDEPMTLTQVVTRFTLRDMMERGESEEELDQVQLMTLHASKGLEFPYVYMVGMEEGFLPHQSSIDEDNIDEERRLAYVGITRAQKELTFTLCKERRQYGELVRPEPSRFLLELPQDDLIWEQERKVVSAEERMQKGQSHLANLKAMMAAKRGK

[2] = biological target: T1, Rep helicase (His6-Rep WT); experiment: as above; assay type: binding; details: 200 uM ATP, 20 nM Rep, biotinylated dT35, Mg2+, pH 7.6, 20 C; remark: listed apart in the source

Nc1ncnc2c1ncn2[C@@H]1O[C@H](COP(=O)(O)OP(=O)(O)OP(=O)(O)O)[C@@H](O)[C@H]1O [ATP]
SPR, nucleotide-stimulated dissociation of Rep from immobilised dT35 [1]: ATP, but not ADP or AMP-PNP, stimulated the dissociation of Rep WT and Rep ΔC33
SPR, nucleotide-stimulated dissociation of Rep from immobilised dT35 [2]: ATP, but not ADP or AMP-PNP, stimulated the dissociation of Rep WT and Rep ΔC33
